Measurements as given in the NIST ThermoML archive (doi:10.1016/j.fluid.2010.07.015).

Test: wn = mass fraction of the nth substance listed
Settings: 101 kPa, Radial Heat Flow Method

[Sn] [tin] + [Al]
thermal conductivity [W/m/K], w2 = 0
Settings | 373 K | 393 K | 413 K | 433 K | 453 K | 473 K | 504 K
Crystal | 67.2 | 65.2 | 63.3 | 61.7 | 62.5 | 60.6 | –
Liquid | – | – | – | – | – | – | 67.2

[Al] [aluminum] + [Sn]
Settings | thermal conductivity [W/m/K]
323 K, Crystal, w1 = 0.022 | 98.8
323 K, Crystal, w1 = 0.25 | 139.3
323 K, Crystal, w1 = 0.5 | 191.7
323 K, Crystal, w1 = 0.75 | 235.5
343 K, Crystal, w1 = 0.022 | 97.4
343 K, Crystal, w1 = 0.25 | 136.8
343 K, Crystal, w1 = 0.5 | 185.3
343 K, Crystal, w1 = 0.75 | 233.7
363 K, Crystal, w1 = 0.005 | 83.5
363 K, Crystal, w1 = 0.022 | 93.3
363 K, Crystal, w1 = 0.25 | 135.9
363 K, Crystal, w1 = 0.5 | 180.6
363 K, Crystal, w1 = 0.75 | 228.2
383 K, Crystal, w1 = 0.005 | 79.5
383 K, Crystal, w1 = 0.022 | 92.7
383 K, Crystal, w1 = 0.25 | 132.3
383 K, Crystal, w1 = 0.5 | 177
383 K, Crystal, w1 = 0.75 | 224.4
403 K, Crystal, w1 = 0.005 | 78.7
403 K, Crystal, w1 = 0.022 | 92.9
403 K, Crystal, w1 = 0.25 | 130.5
403 K, Crystal, w1 = 0.5 | 174.6
403 K, Crystal, w1 = 0.75 | 220.9
423 K, Crystal, w1 = 0.005 | 78.5
423 K, Crystal, w1 = 0.022 | 90.5
423 K, Crystal, w1 = 0.25 | 125.4
423 K, Crystal, w1 = 0.5 | 170.6
423 K, Crystal, w1 = 0.75 | 217.6
423 K, Crystal, w1 = 1 | 302.9
443 K, Crystal, w1 = 0.005 | 77.8
443 K, Crystal, w1 = 0.022 | 88.2
443 K, Crystal, w1 = 0.25 | 123.9
443 K, Crystal, w1 = 0.5 | 166.6
443 K, Crystal, w1 = 0.75 | 211.4
463 K, Crystal, w1 = 0.005 | 76.3
463 K, Crystal, w1 = 0.022 | 86.3
463 K, Crystal, w1 = 0.25 | 118
463 K, Crystal, w1 = 0.5 | 160.1
463 K, Crystal, w1 = 0.75 | 207
473 K, Crystal, w1 = 1 | 288.3
483 K, Crystal, w1 = 0.005 | 75.8
483 K, Crystal, w1 = 0.022 | 82.7
483 K, Crystal, w1 = 0.25 | 116.5
483 K, Crystal, w1 = 0.5 | 152.6
483 K, Crystal, w1 = 0.75 | 196.2
493 K, Crystal, w1 = 0.005 | 69.7
493 K, Crystal, w1 = 0.022 | 80.3
493 K, Crystal, w1 = 0.25 | 112.3
493 K, Crystal, w1 = 0.5 | 142
493 K, Crystal, w1 = 0.75 | 188.5
501 K, Liquid, w1 = 0.005 | 73.8
523 K, Crystal, w1 = 1 | 278.6
573 K, Crystal, w1 = 1 | 261.8
623 K, Crystal, w1 = 1 | 255.7
673 K, Crystal, w1 = 1 | 244.8
723 K, Crystal, w1 = 1 | 241.4
773 K, Crystal, w1 = 1 | 238.6
823 K, Crystal, w1 = 1 | 227.4
873 K, Crystal, w1 = 1 | 226.1
923 K, Crystal, w1 = 1 | 208.8
933 K, Liquid, w1 = 1 | 235
